COc1cc(CC#N)cc(OC)c1OC
solubility (mole fraction)
Conditions | 283.15 K | 288.15 K | 293.15 K | 298.15 K | 303.15 K | 308.15 K | 313.15 K | 318.15 K | 323.15 K
in DMF | 0.102 | 0.127 | 0.158 | 0.195 | 0.239 | 0.289 | 0.35 | 0.418 | 0.497
in cyclohexane | 0.000133 | 0.000248 | 0.000452 | 0.000814 | 0.00154 | 0.00253 | 0.00421 | 0.00671 | 0.011
in ethanol | 0.00753 | 0.00999 | 0.0141 | 0.0209 | 0.0327 | 0.0539 | 0.0927 | 0.167 | 0.312
in ethyl acetate | 0.0517 | 0.076 | 0.107 | 0.146 | 0.195 | 0.25 | 0.315 | 0.386 | 0.461
in isopropanol | 0.00545 | 0.00703 | 0.00942 | 0.0134 | 0.0199 | 0.0305 | 0.0497 | 0.0838 | 0.146
in isopropyl acetate | 0.0389 | 0.0537 | 0.0736 | 0.101 | 0.135 | 0.182 | 0.243 | 0.321 | 0.423
in methanol | 0.00958 | 0.0128 | 0.0179 | 0.0261 | 0.0402 | 0.0638 | 0.106 | 0.183 | 0.327
in n-butanol | 0.00774 | 0.00978 | 0.0129 | 0.018 | 0.0265 | 0.0409 | 0.0657 | 0.111 | 0.193
in n-heptane | 5.37e-05 | 0.000146 | 0.000336 | 0.000693 | 0.00141 | 0.00222 | 0.00361 | 0.00573 | 0.00905
in n-hexane | 0.000515 | 0.000732 | 0.00107 | 0.0016 | 0.00233 | 0.0035 | 0.00533 | 0.00803 | 0.0121
in n-propanol | 0.00747 | 0.00951 | 0.0127 | 0.0179 | 0.0264 | 0.041 | 0.0658 | 0.111 | 0.191
in sec-butanol | 0.00911 | 0.0137 | 0.0206 | 0.0314 | 0.0481 | 0.0755 | 0.118 | 0.189 | 0.301

— BigSolDB 2.1
